Test results published in ChEMBL document CHEMBL1151042, “5-HT4receptor antagonists : oxazolo, oxazino and oxazepino[3,2-a]indole derivatives” (Bioorg Med Chem Lett, 1994).

Key:
[1] = target: 5-hydroxytryptamine receptor 4 (Cavia porcellus, UniProt O70528); test: Ability to block 5-HT4 receptor mediated effect of 5-HT was assessed in the guinea-pig distal colon longitudinal muscle myenteric plexus preparation (LMMP)
[2] = target: Serotonin 4 (5-HT4) receptor (Sus scrofa, UniProt Q6Q253); test: Compound was evaluated for its ability to inhibit the binding of 5-HT4 receptor radioligand [125I]SB 207710 to piglet hippocampal membrane; assay type: tissue-based, Hippocampus
Sequence of Serotonin 4 (5-HT4) receptor (Q6Q253 whole entry): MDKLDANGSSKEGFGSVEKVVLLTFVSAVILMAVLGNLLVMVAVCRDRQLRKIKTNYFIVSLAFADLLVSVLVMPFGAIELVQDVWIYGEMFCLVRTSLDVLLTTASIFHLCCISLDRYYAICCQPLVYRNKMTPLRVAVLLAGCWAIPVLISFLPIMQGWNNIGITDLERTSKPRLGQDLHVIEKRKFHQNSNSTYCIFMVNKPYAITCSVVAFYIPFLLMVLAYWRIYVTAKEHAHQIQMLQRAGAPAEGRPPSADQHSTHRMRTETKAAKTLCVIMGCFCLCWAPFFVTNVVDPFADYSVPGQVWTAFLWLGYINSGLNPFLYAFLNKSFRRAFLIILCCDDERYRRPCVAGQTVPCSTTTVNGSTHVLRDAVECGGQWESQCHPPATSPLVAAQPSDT

Sequence of 5-hydroxytryptamine receptor 4 (O70528 whole entry): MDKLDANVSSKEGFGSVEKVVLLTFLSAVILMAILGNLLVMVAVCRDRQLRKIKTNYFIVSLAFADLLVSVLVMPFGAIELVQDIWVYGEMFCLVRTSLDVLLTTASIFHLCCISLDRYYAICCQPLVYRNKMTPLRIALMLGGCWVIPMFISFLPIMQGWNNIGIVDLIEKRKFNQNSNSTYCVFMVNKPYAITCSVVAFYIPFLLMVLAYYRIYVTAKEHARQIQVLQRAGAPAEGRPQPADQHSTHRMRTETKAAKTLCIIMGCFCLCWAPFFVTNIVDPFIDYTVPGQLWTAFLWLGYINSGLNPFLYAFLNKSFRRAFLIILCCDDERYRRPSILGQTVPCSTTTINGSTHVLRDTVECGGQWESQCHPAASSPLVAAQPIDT

`CCCCN1CCC(COC(=O)c2c3n(c4ccccc24)CCCO3)CC1` gave an IC50 [1] of 0.0251 nM and a Ki [2] of 0.0631 nM.

With `CCCCN1CCC(COC(=O)c2c[nH]c3ccccc23)CC1` the IC50 [1] was 0.501 nM and the Ki [2] was 2.51 nM.

With `CCCCN1CCC(COC(=O)c2cc(Cl)c(N)c3c2OCCO3)CC1` the IC50 [1] was 0.0794 nM and the Ki [2] was 0.126 nM.

With `CCCCN1CCC(COC(=O)c2c3n(c4ccccc24)CCO3)CC1` the IC50 [1] was 0.1 nM and the Ki [2] was 0.0794 nM.

`CCCCN1CCC(COC(=O)c2c3n(c4ccccc24)CCCCO3)CC1` gave an IC50 [1] of 0.158 nM and a Ki [2] of 0.2 nM.
